# Laboratory results: publication PMC8196835, “Antibacterial Properties of Small-Size Peptide Derived from Penetratin against Oral Streptococci” (Materials, 2021)
# Residues, ends and D or L forms follow the SMILES beside them.
# Experiments:
# [1] = system: S. oralis (ATCC No 9811); type: cell-based, Streptococci oralis; details: ATCC No 9811, 24 h
# Procedure: (§1) The bacterial strains S. oralis (ATCC No 9811), S. sanguinis (ATCC No 10556), and S. gordonii (ATCC No 10558) were purchased from the ATCC (American Type Culture Collection, Manassas, VA, USA). The cultivation method was the same as that described in a previous article.
# (§2) The bacterial growth inhibiting ability of the peptide was determined using a broth microdilution-based method with modifications. […] The start inoculum was 5 × 10^7 CFU mL^−1, and the MIC was denoted as the lowest concentration of peptides where bacterial growth was stopped. After bacteria were treated with RR9 for 24 h, 20 uL was removed from each sample and spread on a brain heart infusion (BHI) agar plate. The CFU on plates were counted after incubation at 37 °C for 5 days. The MBC is the concentration of RR9 where over 99.9% of the cells were inhibited.
# [2] = system: S. sanguinis (ATCC No 10556); type: cell-based, Streptococci sanguinis; details: ATCC No 10556, 24 h
# Procedure: as §1, §2
# [3] = system: sspA gene of S. gordonii; experiment: RT-PCR of sspA gene expression; type: cell-based; details: RR9 25 μg mL^−1 (MIC), 24 h, p < 0.05
# Procedure: Trizol reagent was employed to extract the total RNA of S. gordonii cells, following the manufacturer’s instructions. The first strand of cDNA was synthesized by the retrotranscription of 2 μL of RNA (Invitrogen, TRIzol Max Bacterial RNA Isolation Kit). The cDNA was amplified to a final volume of 20 μL by 45 cycles in a DNA thermal circulatory apparatus. Pre-denaturation was carried out at 95 °C for 15 s, and the reaction was performed at 95 °C for 10 s, 60 °C for 20 s, and 72 °C for 30 s. The primer sequences of the differentiation markers are shown in Table A1 in Appendix B. After amplification, GAPDH was defined as the internal reference gene, and the sample of the control group was set as the standard to obtain the CT value of each target gene for each sample. The data were analyzed using the relative quantification of ΔCT. The relative quantitative (RQ) values of all target genes were obtained according to the formula RQ = 2^−ΔΔCT.
# [4] = system: streptococci biofilm (S. oralis, S. gordonii, S. sanguinis); experiment: Biofilm susceptibility, crystal violet; type: cell-based; details: RR9 25 μg mL^−1 (MIC), 24 h, n = 3, p < 0.05
# Procedure: The antibacterial agents were evaluated by the microdilution method to study their impact on biofilm formation. In our study, streptococci (5 × 10^7 CFU mL^−1) mixed with RR9 were cultured for 24 h. The formed biofilm was fixed using methanol (95%) and stained using 0.5% (w/v) crystal violet, and the final OD at 600 nm was measured.
# [5] = system: streptococci biofilms and cell membranes; experiment: SEM and TEM observation of bacterial morphology; type: cell-based, S. oralis, S. gordonii, S. sanguinis; details: RR9 25 μg mL^−1, 24 h (SEM), 12 h (TEM)
# Excerpt: The morphology of the formed biofilm was observed using scanning electron microscopy (SEM, SUPRA 55VP, Germany) following previously published procedures. Additionally, the transmission electron microscopy (TEM, JEM-2100F; JEOL Ltd., Tokyo, Japan)-based technique was employed for the structural analysis of RR9 cells according to the previously reported method. For more details, please check Appendix A.
# A sterile coverslip was placed in a 24-well plate and was as described above. The coverslips with biofilms were fixed with 2.5% (v/v) glutaraldehyde, and the samples were dehydrated with increasing concentrations of ethanol for 15 min each. Prior to field-emission SEM, the samples were subjected to gold sputtering.
# After incubation with RR9 (25 μg mL^−1) or without the peptide (control group) for 12 h at 37 °C in an anaerobic chamber (N2: 80%; H2: 10%; CO2: 10%), super-thin slice samples were prepared for TEM using a previously reported method. The cells were fixed with 2.5% glutaraldehyde at 4 °C for 4 h and, then, dyed with 2% uranyl acetate and 0.2% citrate before being observed under electron.
# [6] = system: streptococci biofilm (S. oralis, S. gordonii, S. sanguinis); type: cell-based; details: RR9 25 μg mL^−1, 24 h at 37 °C, preformed 24 h biofilm, AO/EB
# Procedure: Each bacteria suspension (300 μL) was mixed with BHI broth (900 μL) and then cultured for 24 h in a 24-well microtiter plate for biofilm formation. After the removal of the medium and unattached bacterial cells, RR9 (25 μg mL^−1) with saliva or serum was added, and the resulting samples were cultured for another 24 h at 37 °C. After the staining of the attached bacteria using an acridine orange/ethidium bromide (AO/EB) solution (Solarbio, Beijing, China), CLSM (Leica SP8, Oskar-Barnack-Strae Germany) was used to count the number of observed bacterial cells. For each biofilm strain, three representative areas per lens were scanned in at least three separate experiments. The images were captured using MetaMorph software (Universal Imaging, West Chester, PA, USA).
# [7] = system: human gingival fibroblasts (HGFs); type: cell-based; details: RR9 25 μg mL^−1, 1–4 days, CCK-8 OD 450 and AO/EB CLSM
# Procedure: HGFs were purchased from Procell Life Science & Technology (Wuhan, China). Cells from passages 4 to 6 were used. The cultivation method was described previously.
# The HGFs (2 × 10^3 cells per well) were cultured in DMEM supplemented with 10% FBS in a humidified incubator (37 °C, 5% CO2 atmosphere) for 24 h. Pretreatment of the cells was conducted by incubating with 25 μg mL^−1 RR9 for 1, 2, 3, and 4 days. Untreated cells were used as a negative control. The samples were characterized using the Cell Counting Kit-8 (Dojindo Laboratories, Kumamoto, Japan) by measuring their absorbance at 450 nm using a microplate reader (BioTek Synergy HT, Vermont, USA). After staining using AO/EB live/dead dye, the viability of seeded cells on the sterile coverslips was determined using CLSM. Each sample consisted of five wells.
# [8] = system: S. gordonii (ATCC No 10558); type: cell-based, Streptococci gordonii; details: ATCC No 10558, 24 h
# Procedure: as §1, §2
# [9] = system: planktonic oral streptococci (S. oralis, S. sanguinis, S. gordonii); experiment: Time-kill assay; type: cell-based
# Procedure: To evaluate the effect of RR9 on planktonic oral streptococci, the time-killing assay was used. First, 200 μL of RR9 solution and 800 μL of BHI broth were mixed with 1 mL of bacterial culture (5 × 10^7 CFU mL^−1), yielding 2 mL of the final volume with 100%, 200%, or 400% of the MBC final peptide concentrations. After 0, 0.25, 0.5, 1, 2, 4, 24, and 48 h of incubation at 37 °C, 10 μL of each suspension was pipetted, serially diluted 10 times, and finally transferred to a BHI agar plate for CFU determination. The time–kill kinetic curves were obtained by recording log(CFU mL^−1) as a function of incubation time […].
# [10] = system: tested bacteria; details: cited from earlier work
# Excerpt: To overcome the drawbacks of using cationic peptides as a new generation of antibiotics, researchers began to synthesize new short peptides by reducing the residue of the peptide chain for use as candidate drugs in clinical trials. […] Therefore, we aimed to figure out the antibacterial activity of RR9 on initial oral colonizers, specifically S. oralis, S. gordonii, and S. sanguinis ... || Antibiotics are used excessively and inappropriately in clinic. As a result, it directly leads to the weakening of the effect of antibiotics and the emergence of drug-resistant pathogens. Among new biomedical alternatives, antimicrobial peptides (AMPs) and cell-penetrating peptides (CPPs) are considered promising candidates. CPPs are a new carrier that can pass through the cell membrane without cell surface receptor recognition and can deliver therapeutic drugs to the cell membrane. One of the most well-known examples of CPPs is penetratin (RQIKIWFQNRRMKWK ...
# [11] = system: mammalian cells; details: cited from earlier work
# Excerpt: Antibiotics are used excessively and inappropriately in clinic. As a result, it directly leads to the weakening of the effect of antibiotics and the emergence of drug-resistant pathogens. Among new biomedical alternatives, antimicrobial peptides (AMPs) and cell-penetrating peptides (CPPs) are considered promising candidates. CPPs are a new carrier that can pass through the cell membrane without cell surface receptor recognition and can deliver therapeutic drugs to the cell membrane. One of the most well-known examples of CPPs is penetratin (RQIKIWFQNRRMKWK ...
Compound,MBC [1] [µg/mL],MIC [1] [µg/mL],MBC [2] [µg/mL],MIC [2] [µg/mL],expression of the sspA gene versus control [3],"biofilm formation, OD at 600 nm versus control [4]","bacterial morphology and membrane integrity (SEM, TEM) [5]",anti-biofilm effect of RR9 with saliva or serum compared with RR9 alone (CLSM live/dead) [6],cytotoxicity toward HGFs [7],MBC [8] [µg/mL],MIC [8] [µg/mL],"time to complete bacterial death ([9]; 100%, 200% or 400% of the MBC, 37 °C, all tested strains) [h]",duration of the antimicrobial effect ([9]; time-kill over 48 h) [h],antimicrobial effect against selected bacteria [10],cytotoxicity toward mammalian cells [11],bactericidal effect on the tested bacteria [10]
"CC[C@H](C)[C@H](NC(=O)[C@H](CCC(N)=O)NC(=O)[C@@H](N)CCCNC(=N)N)C(=O)N[C@@H](CCCNC(=N)N)C(=O)N[C@@H](CCCNC(=N)N)C(=O)N[C@@H](Cc1c[nH]c2ccccc12)C(=O)N[C@@H](Cc1c[nH]c2ccccc12)C(=O)N[C@@H](CCC(N)=O)C(=O)N[C@@H](CCCNC(=N)N)C(N)=O [RR9, Arg-Gln-Ile-Arg-Arg-Trp-Trp-Gln-Arg-NH2] (H-RQIRRWWQR-NH2; N-terminus assumed)",62.5,25,62.5,25,significantly reduced,reduced OD value,"the bacteria swelled, and some cell membranes were damaged",No significant difference,negligible cytotoxicity,50,25,24 to 48,44,strong antimicrobial effect,,
"RQIKIWFQNRRMKWKK-NH2 [penetratin, well-known cell-penetrating peptide, …-NH2]",,,,,,,,,,,,,,,without any cytotoxicity,strong bactericidal effect
